Data taken from patent publication US6465614B1, “High-affinity response-selective C-terminal analogs of C5a anaphylatoxin” (priority 1994, dated 2002).
Like-named read-outs stand apart in the source and are kept apart here. Ends that are not written are not given here.

Experiments:
human neutrophils (PMN) [1] = target: T1, human neutrophils (PMN) (Homo sapiens, UniProt P21730); assay type: cell-based; conditions: human neutrophils; read-out: PMN Polarization EC50
T1 sequence (P21730 1-350): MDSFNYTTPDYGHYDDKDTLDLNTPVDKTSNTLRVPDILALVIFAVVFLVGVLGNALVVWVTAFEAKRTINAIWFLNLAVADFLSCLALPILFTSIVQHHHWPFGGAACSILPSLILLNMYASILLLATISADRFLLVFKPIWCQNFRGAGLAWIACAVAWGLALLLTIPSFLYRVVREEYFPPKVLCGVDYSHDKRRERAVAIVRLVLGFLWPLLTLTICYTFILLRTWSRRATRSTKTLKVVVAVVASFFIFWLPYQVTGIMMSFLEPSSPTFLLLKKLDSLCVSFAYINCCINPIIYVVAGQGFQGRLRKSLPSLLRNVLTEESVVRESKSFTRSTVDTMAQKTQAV
Procedure: Neutrophil polarization assays were conducted as described by Ember et al., 1992, supra. Human neutrophils (PMN) were prepared according to the procedure described by Dahinden et al. (1979), J. Immunol., 130: 857-862. The assay for measuring the effect of C5a analogs on PMN polarization was described by Haston & Shields (1985), J. Immunol. Methods, 81: 229-237. Briefly, PMN (1×10^6 cells/ml) were suspended in 10 mM 3- (N-morpholino) propane sulfonic acid (Sigma Chemical Co.) containing EBSS. […] After 10 minutes of incubation at room temperature, the cells were washed twice and stored until microscopic examination. Cells deviating from the typical spherical shape were visually scored as polarized. Results are expressed as percent of polarized cells per total cells counted (300 cells counted/sample).

serum carboxypeptidases = assay: Stability toward serum carboxypeptidases (incubation in normal human serum, HPLC); assay type: in vitro ADME; conditions: 37° C., 1 h
Procedure: FIG. 10. HPLC profiles of decapeptide analogs. FIG. 10A: HPLC of […] (peptide/Sequence I.D. No. 2); a=purified peptide; b=des-Arg peptide ([…]; Sequence I.D. No. 24); c=des-Arg peptide in saline, no incubation; d=des-Arg peptide in saline with incubation for 1 h at 37° C.; e=des-Arg peptide in normal human serum with incubation for 1 h at 37° C. FIG. 10B: HPLC of […]aR (Sequence I.D. No. 10); a=purified peptide; b=peptide in saline, no incubation; c=peptide in saline with incubation for 1 h at 37° C.; d=peptide in normal human serum with incubation for 1 h at 37° C. Solvent system 1: 70 mM triethylamine/phosphoric acid buffer, pH-2.3. Solvent system 2: 60% acetonitrile in the Solvent 1 buffer. Linear gradient of 30-50% solvent 2 at.1%/min, slope=1 ml/min, absorbance monitored at 214 nm.
Both peptides were incubated in normal human serum at 37° C. for 1 h and thereafter reanalyzed on HPLC.

human neutrophils (PMN) [2] = target: T1, human neutrophils (PMN); assay type: cell-based; conditions: human neutrophils, β-glucuronidase release; read-out: PMN Enzyme Release EC50
Procedure: The release of glucuronidase from human neutrophils was determined as described by Schroder et al. (1987), J. Immunol., 139: 3474-3483. Briefly, human neutrophils were pretreated with cytochalasin B (5 μg/ml, 10 min, 37° C.). The cells (10^6) were incubated in the presence of stimulants for 60 minutes at 37° C. in a final volume of 200 μl and then centrifuged. The supernatant was collected and 50 μl were incubated with 50 μl of 0.01 M P-nitrophenyl-β-D-glucuronide (in 0.1 M sodium acetate at pH 4 for 18 h) as triplicate determinations in 96-well microtiter plates (Corning). The reaction was stopped by addition of 100 μl of 0.4 M gly buffer at pH 10. The reaction developed color that was read at 405 nm in a Titertec Multiscan (MCC/340) ELISA reader. The β-glucuronidase released was expressed as the percentage of total enzyme in the cell that could be released by addition of 0.2% Triton X-100 (Pierce).

human fetal artery = target: T2, human fetal artery (Homo sapiens, UniProt P21730); assay: Smooth muscle contraction of human fetal artery (spasmogenic assay); assay type: cell-based; conditions: for log potency ratio at the EC50 level compared to C5a / % of C5a potency: fetal artery; for % of C5a potency: from log potency ratio at EC50 level
T2 sequence (P21730 1-350): T1 sequence (P21730 1-350)
Procedure: (§1) Tissue strips were suspended in 2 ml organ baths, containing physiological salt solution (Krebs-Ringers solution: 118 mM NaCl, 4.7 mM KCl, 2.5 mM CaCl2, 25 mM NaHCO3, 1.2 mM KH2PO4, 1.2 mM MgSO4, 10 mM Glucose) maintained at 37° C., pH 7.4 and continuously aerated with a 95% CO2 mixture. Each tissue preparation was equilibrated for 1 hr prior to testing with peptides. All drugs were kept on ice during the procedure and isometric tensions were measured using strain-gauge transducers (Grass FT-03) with a computerized chart recording system (MacLab/8). After the contraction to each peptide reached a plateau, histamine (10 μM) was added to obtain the maximum tissue response. Because tachyphylaxis occurs rapidly to single doses of C5a or peptides, cumulative dose-response curves could not be obtained. Instead, the dose-response profile was compiled from multiple strips from each tissue. After exposing each strip to a single concentration of the peptide followed by supramaximal histamine, the response was expressed as a percentage of the maximal contraction to histamine. Full dose-response curves for C5a (human recombinant C5a; Sigma) or individual peptides were performed in each experiment for each tissue and the EC50 values (i.e., concentration of peptide producing 50t of the maximal response to each peptide) obtained by probit analysis. pD2 transforms [−log EC50 (M)] were calculated for each dose-response curve, and means ±SE obtained for each peptide.
Human umbilical cords were obtained from the Mater Misericordiae Hospital, South Brisbane, Queensland within minutes of delivery. The mid-section of the umbilical cord was cut from the placenta, placed in physiological salt solution and stored at 5° C. for up to 24 hrs. […] The fetal arteries were dissected out and cut into longitudinal strips. The intimal surface of the arteries was rubbed with a cotton bud to remove the endothelium. Strips approximately 2 cm×3 mm were suspended in organ baths under 20 mN of resting tension. Arterial strips were tested repeatedly with peptides following a 60 min drug-free period of rest between assays (Taylor et al. (1994), Inflammation, in press).

guinea-pig platelets = assay: Guinea-pig platelet aggregation assay; assay type: cell-based; conditions: for Platelet Aggreg (threshold concentration producing visible platelet aggregation): guinea-pig platelets, threshold response
Procedure: This assay was performed on platelets obtained from the arterial blood of anesthetized male Hartley guinea pigs according to previously published methods (Ember et al., 1992, supra). Briefly, platelet-rich plasma was prepared and diluted to 3×10^8 platelets/ml in 0.39% sodium citrate solution. Peptide samples were diluted in a stepwise fashion in 1.5-fold dilutions and placed in 96-well microplates. A […] peptide sample, […] of platelet-rich plasma, and one 3 mm glass bead were placed in each well. The plates were shaken horizontally at 100 rpm for 5 min at 37° C. Platelet aggregation was evaluated visually in an inverted microscope at 40× magnification. The greatest dilution of peptide producing visible aggregation was scored as the threshold concentration for activity. Natural C5a and C3a were included as internal standards. At least three independent duplicate determinations were conducted for every peptide.

[3] = test system: guinea-pig lung parenchyma; assay: Smooth muscle contraction of guinea-pig lung parenchyma; assay type: cell-based; conditions: arithmetic mean
Procedure: as §1, with “Each” for “Tissue strips were suspended in 2 ml organ baths, containing physiological salt solution (Krebs-Ringers solution: 118 mM NaCl, 4.7 mM KCl, 2.5 mM CaCl2, 25 mM NaHCO3, 1.2 mM KH2PO4, 1.2 mM MgSO4, 10 mM Glucose) maintained at 37° C., pH 7.4 and continuously aerated with a 95% CO2 mixture. Each”

Compound	EC50 (human neutrophils (PMN) [1]) [µM]	cleavage of the C-terminal Arg (serum carboxypeptidases)	EC50 (human neutrophils (PMN) [2]) [µM]	log potency ratio at the EC50 level compared to C5a (human fetal artery)	% of C5a potency (human fetal artery) [%]	potency relative to peptide 2 in spasmogenic activity (human fetal artery; more potent than peptide 2)	Platelet Aggreg (threshold concentration producing visible platelet aggregation) (guinea-pig platelets) [µM]	potency relative to peptide 2 in platelet aggregation (guinea-pig platelets; more potent than peptide 2)	potency relative to the C-terminal 19-mer of natural sequence (human fetal artery; smooth muscle contraction of human fetal artery (FIG. 1))	EC50 [3] [µM]
CSCC[C@H](NC(=O)[C@H](CC(=O)O)NC(=O)[C@H](CCCCN)NC(=O)[C@H](Cc1ccccc1)NC(=O)[C@H](CO)NC(=O)[C@@H](N)Cc1ccc(O)cc1)C(=O)N1CCC[C@H]1C(=O)N[C@@H](CC(C)C)C(=O)N[C@H](C)C(=O)N[C@@H](CCCNC(=N)N)C(=O)O [peptide 10]	2.1	none	57.7	1.42±0.13	4	about 32 fold	1.3	about 18 fold		
YSFKDMQLGR-OH [peptide 2]	4		50	2.78±0.10	0.2		22.9		about 20 times	28.4
